Assay results reported in patent US6156700A, “3-(1,2-Benzisothiazol- and isoxazol-5-yl)-2,4(1H,3H)-pyrimidinedione or thione and 3-(1,2-benzisothiazol- and isoxazol-5-yl)-4(3H)-pyrimidinone or thione herbicidal agents” (American Cyanmid Company, priority 1998, dated 2000).

Key:
ABUTH [1] = assay: Preemergence herbicidal evaluation; assay type: in vivo; parameters: scale not given here
Description: (§1) The preemergence and postemergence herbicidal properties of certain compounds of the present invention are compared with certain compounds disclosed in U.S. Pat. Nos. 5,484,763 and 5,523,278. The evaluations are performed as described in Examples 185 and 186. Data in Tables V and VI are reported by the compound number given in Example 185 for the compounds of this invention or by comparative compound letter for the compounds disclosed in U.S. Pat. Nos. 5,484,763 and 5,523,278.

AMBEL [2] = assay: Preemergence herbicidal evaluation; assay type: in vivo; parameters: scale not given here
Description: as §1

CASOB [3] = assay: Preemergence herbicidal evaluation; assay type: in vivo; parameters: scale not given here
Description: as §1

CHEAL [4] = assay: Preemergence herbicidal evaluation; assay type: in vivo; parameters: scale not given here
Description: as §1

ECHCG [5] = assay: Preemergence herbicidal evaluation; assay type: in vivo; parameters: scale not given here
Description: as §1

GALAP [6] = assay: Preemergence herbicidal evaluation; assay type: in vivo; parameters: scale not given here
Description: as §1

GLXMAW [7] = assay: Preemergence herbicidal evaluation; assay type: in vivo; parameters: scale not given here
Description: as §1

IPOSS [8] = assay: Preemergence herbicidal evaluation; assay type: in vivo; parameters: scale not given here
Description: as §1

SETVI [9] = assay: Preemergence herbicidal evaluation; assay type: in vivo; parameters: scale not given here
Description: as §1

ZEAMX [10] = assay: Preemergence herbicidal evaluation; assay type: in vivo; parameters: scale not given here
Description: as §1

ORYSAT [11] = assay: Preemergence herbicidal evaluation; assay type: in vivo, Oryza sativa; parameters: scale not given here
Description: as §1

ABUTH [12] = assay: Postemergence herbicidal evaluation; assay type: in vivo
AMBEL [13] = assay: Postemergence herbicidal evaluation; assay type: in vivo
CASOB [14] = assay: Postemergence herbicidal evaluation; assay type: in vivo
CHEAL [15] = assay: Postemergence herbicidal evaluation; assay type: in vivo
GALAP [16] = assay: Postemergence herbicidal evaluation; assay type: in vivo
IPOSS [17] = assay: Postemergence herbicidal evaluation; assay type: in vivo
ECHCG [18] = assay: Postemergence herbicidal evaluation; assay type: in vivo
SETVI [19] = assay: Postemergence herbicidal evaluation; assay type: in vivo
GLXMAW [20] = assay: Postemergence herbicidal evaluation; assay type: in vivo
ORYSAT [21] = assay: Postemergence herbicidal evaluation; assay type: in vivo, Oryza sativa
ZEAMX [22] = assay: Postemergence herbicidal evaluation; assay type: in vivo

Cc1nsc2ccc(N3C(=O)C4=C(CCCC4)C3=O)cc12 [B]
herbicidal effect rating (ABUTH [1]; 0.0313-0.0320 kg/ha): 0.0
herbicidal effect rating (ABUTH [1]; 0.0620-0.0630 kg/ha): 3.0
herbicidal effect rating (ABUTH [1]; 0.2500 kg/ha): 2.0
herbicidal effect rating (ABUTH [1]; 0.5000 kg/ha): 5.0
herbicidal effect rating (AMBEL [2]; 0.0313-0.0320 kg/ha): 0.0
herbicidal effect rating (AMBEL [2]; 0.0620-0.0630 kg/ha): 0.0
herbicidal effect rating (AMBEL [2]; 0.1250 kg/ha): 2.0
herbicidal effect rating (AMBEL [2]; 0.2500 kg/ha): 3.0
herbicidal effect rating (AMBEL [2]; 0.5000 kg/ha): 8.0
herbicidal effect rating (CASOB [3]; 0.0313-0.0320 kg/ha): 0.0
herbicidal effect rating (CASOB [3]; 0.0620-0.0630 kg/ha): 0.0
herbicidal effect rating (CASOB [3]; 0.1250 kg/ha): 0.0
herbicidal effect rating (CASOB [3]; 0.2500 kg/ha): 0.0
herbicidal effect rating (CASOB [3]; 0.5000 kg/ha): 0.0
herbicidal effect rating (CHEAL [4]; 0.0313-0.0320 kg/ha): 9.0
herbicidal effect rating (CHEAL [4]; 0.0620-0.0630 kg/ha): 6.0
herbicidal effect rating (CHEAL [4]; 0.1250 kg/ha): 9.0
herbicidal effect rating (CHEAL [4]; 0.2500 kg/ha): 9.0
herbicidal effect rating (CHEAL [4]; 0.5000 kg/ha): 9.0
herbicidal effect rating (ECHCG [5]; 0.0313-0.0320 kg/ha): 0.0
herbicidal effect rating (ECHCG [5]; 0.0620-0.0630 kg/ha): 0.0
herbicidal effect rating (ECHCG [5]; 0.1250 kg/ha): 3.0
herbicidal effect rating (ECHCG [5]; 0.2500 kg/ha): 5.0
herbicidal effect rating (ECHCG [5]; 0.5000 kg/ha): 5.0
herbicidal effect rating (GALAP [6]; 0.0313-0.0320 kg/ha): 0.0
herbicidal effect rating (GALAP [6]; 0.0620-0.0630 kg/ha): 0.0
herbicidal effect rating (GALAP [6]; 0.1250 kg/ha): 5.0
herbicidal effect rating (GALAP [6]; 0.2500 kg/ha): 9.0
herbicidal effect rating (GALAP [6]; 0.5000 kg/ha): 7.0
herbicidal effect rating (GLXMAW [7]; 0.0313-0.0320 kg/ha): 0.0
herbicidal effect rating (GLXMAW [7]; 0.0620-0.0630 kg/ha): 0.0
herbicidal effect rating (GLXMAW [7]; 0.1250 kg/ha): 0.0
herbicidal effect rating (GLXMAW [7]; 0.2500 kg/ha): 1.0
herbicidal effect rating (GLXMAW [7]; 0.5000 kg/ha): 1.0
herbicidal effect rating (IPOSS [8]; 0.0313-0.0320 kg/ha): 0.0
herbicidal effect rating (IPOSS [8]; 0.0620-0.0630 kg/ha): 0.0
herbicidal effect rating (IPOSS [8]; 0.1250 kg/ha): 0.0
herbicidal effect rating (IPOSS [8]; 0.2500 kg/ha): 2.0
herbicidal effect rating (IPOSS [8]; 0.5000 kg/ha): 5.0
herbicidal effect rating (SETVI [9]; 0.0313-0.0320 kg/ha): 0.0
herbicidal effect rating (SETVI [9]; 0.0620-0.0630 kg/ha): 0.0
herbicidal effect rating (SETVI [9]; 0.1250 kg/ha): 2.0
herbicidal effect rating (SETVI [9]; 0.2500 kg/ha): 6.0
herbicidal effect rating (SETVI [9]; 0.5000 kg/ha): 4.0
herbicidal effect rating (ZEAMX [10]; 0.0313-0.0320 kg/ha): 0.0
herbicidal effect rating (ZEAMX [10]; 0.0620-0.0630 kg/ha): 0.0
herbicidal effect rating (ZEAMX [10]; 0.1250 kg/ha): 0.0
herbicidal effect rating (ZEAMX [10]; 0.2500 kg/ha): 0.0
herbicidal effect rating (ZEAMX [10]; 0.5000 kg/ha): 1.0
herbicidal effect rating (ORYSAT [11]; 0.0313-0.0320 kg/ha): 0.0
herbicidal effect rating (ORYSAT [11]; 0.0620-0.0630 kg/ha): 0.0
herbicidal effect rating (ORYSAT [11]; 0.1250 kg/ha): 2.0
herbicidal effect rating (ORYSAT [11]; 0.2500 kg/ha): 2.0
herbicidal effect rating (ORYSAT [11]; 0.5000 kg/ha): 4.0
herbicidal effect rating (ABUTH [12]; 0.0157-0.0160 kg/ha): 8.0
herbicidal effect rating (ABUTH [12]; 0.0313-0.0320 kg/ha): 8.0
herbicidal effect rating (ABUTH [12]; 0.0625-0.0640 kg/ha): 9.0
herbicidal effect rating (ABUTH [12]; 0.1250 kg/ha): 9.0
herbicidal effect rating (ABUTH [12]; 0.2500 kg/ha): 9.0
herbicidal effect rating (ABUTH [12]; 0.5000 kg/ha): 9.0
herbicidal effect rating (AMBEL [13]; 0.0157-0.0160 kg/ha): 2.0
herbicidal effect rating (AMBEL [13]; 0.0313-0.0320 kg/ha): 6.0
herbicidal effect rating (AMBEL [13]; 0.0625-0.0640 kg/ha): 8.0
herbicidal effect rating (AMBEL [13]; 0.1250 kg/ha): 8.0
herbicidal effect rating (AMBEL [13]; 0.2500 kg/ha): 9.0
herbicidal effect rating (AMBEL [13]; 0.5000 kg/ha): 9.0
herbicidal effect rating (CASOB [14]; 0.0157-0.0160 kg/ha): 6.0
herbicidal effect rating (CASOB [14]; 0.0313-0.0320 kg/ha): 7.0
herbicidal effect rating (CASOB [14]; 0.0625-0.0640 kg/ha): 8.0
herbicidal effect rating (CASOB [14]; 0.1250 kg/ha): 8.0
herbicidal effect rating (CASOB [14]; 0.2500 kg/ha): 9.0
herbicidal effect rating (CASOB [14]; 0.5000 kg/ha): 9.0
herbicidal effect rating (CHEAL [15]; 0.0157-0.0160 kg/ha): 3.0
herbicidal effect rating (CHEAL [15]; 0.0313-0.0320 kg/ha): 7.0
herbicidal effect rating (CHEAL [15]; 0.0625-0.0640 kg/ha): 7.0
herbicidal effect rating (CHEAL [15]; 0.1250 kg/ha): 9.0
herbicidal effect rating (CHEAL [15]; 0.2500 kg/ha): 8.0
herbicidal effect rating (CHEAL [15]; 0.5000 kg/ha): 9.0
herbicidal effect rating (GALAP [16]; 0.0157-0.0160 kg/ha): 5.0
herbicidal effect rating (GALAP [16]; 0.0313-0.0320 kg/ha): 7.0
herbicidal effect rating (GALAP [16]; 0.0625-0.0640 kg/ha): 7.0
herbicidal effect rating (GALAP [16]; 0.1250 kg/ha): 7.0
herbicidal effect rating (GALAP [16]; 0.2500 kg/ha): 8.0
herbicidal effect rating (GALAP [16]; 0.5000 kg/ha): 8.0
herbicidal effect rating (IPOSS [17]; 0.0157-0.0160 kg/ha): 6.0
herbicidal effect rating (IPOSS [17]; 0.0313-0.0320 kg/ha): 7.0
herbicidal effect rating (IPOSS [17]; 0.0625-0.0640 kg/ha): 8.0
herbicidal effect rating (IPOSS [17]; 0.1250 kg/ha): 8.0
herbicidal effect rating (IPOSS [17]; 0.2500 kg/ha): 8.0
herbicidal effect rating (IPOSS [17]; 0.5000 kg/ha): 9.0
herbicidal effect rating (ECHCG [18]; 0.0157-0.0160 kg/ha): 0.0
herbicidal effect rating (ECHCG [18]; 0.0313-0.0320 kg/ha): 2.0
herbicidal effect rating (ECHCG [18]; 0.0625-0.0640 kg/ha): 2.0
herbicidal effect rating (ECHCG [18]; 0.1250 kg/ha): 4.0
herbicidal effect rating (ECHCG [18]; 0.2500 kg/ha): 5.0
herbicidal effect rating (ECHCG [18]; 0.5000 kg/ha): 6.0
herbicidal effect rating (SETVI [19]; 0.0157-0.0160 kg/ha): 0.0
herbicidal effect rating (SETVI [19]; 0.0313-0.0320 kg/ha): 0.0
herbicidal effect rating (SETVI [19]; 0.0625-0.0640 kg/ha): 2.0
herbicidal effect rating (SETVI [19]; 0.1250 kg/ha): 4.0
herbicidal effect rating (SETVI [19]; 0.2500 kg/ha): 5.0
herbicidal effect rating (SETVI [19]; 0.5000 kg/ha): 5.0
herbicidal effect rating (GLXMAW [20]; 0.0157-0.0160 kg/ha): 5.5
herbicidal effect rating (GLXMAW [20]; 0.0313-0.0320 kg/ha): 5.5
herbicidal effect rating (GLXMAW [20]; 0.0625-0.0640 kg/ha): 5.5
herbicidal effect rating (GLXMAW [20]; 0.1250 kg/ha): 6.0
herbicidal effect rating (GLXMAW [20]; 0.2500 kg/ha): 7.0
herbicidal effect rating (GLXMAW [20]; 0.5000 kg/ha): 7.5
herbicidal effect rating (ORYSAT [21]; 0.0157-0.0160 kg/ha): 3.5
herbicidal effect rating (ORYSAT [21]; 0.0313-0.0320 kg/ha): 4.0
herbicidal effect rating (ORYSAT [21]; 0.0625-0.0640 kg/ha): 4.5
herbicidal effect rating (ORYSAT [21]; 0.1250 kg/ha): 4.5
herbicidal effect rating (ORYSAT [21]; 0.2500 kg/ha): 5.5
herbicidal effect rating (ORYSAT [21]; 0.5000 kg/ha): 6.0
herbicidal effect rating (ZEAMX [22]; 0.0157-0.0160 kg/ha): 5.0
herbicidal effect rating (ZEAMX [22]; 0.0313-0.0320 kg/ha): 5.5
herbicidal effect rating (ZEAMX [22]; 0.0625-0.0640 kg/ha): 5.0
herbicidal effect rating (ZEAMX [22]; 0.1250 kg/ha): 5.5
herbicidal effect rating (ZEAMX [22]; 0.2500 kg/ha): 6.0
herbicidal effect rating (ZEAMX [22]; 0.5000 kg/ha): 5.5
